The values that follow come from patent US11820766B2, “Monoacylglycerol lipase modulators” (Janssen Pharmaceutica NV, priority 2018, dated 2023).

Where a name gives a salt, the structure may show the parent alone.

One experiment has as its target T1, human MGL from HeLa cells (Homo sapiens, UniProt Q99685).
T1 construct: combining endogenously expressed MGL from HeLa cells with test compounds; endogenous in cells; host or cells: HeLa cells / cell homogenates
T1 sequence (Q99685 1-303): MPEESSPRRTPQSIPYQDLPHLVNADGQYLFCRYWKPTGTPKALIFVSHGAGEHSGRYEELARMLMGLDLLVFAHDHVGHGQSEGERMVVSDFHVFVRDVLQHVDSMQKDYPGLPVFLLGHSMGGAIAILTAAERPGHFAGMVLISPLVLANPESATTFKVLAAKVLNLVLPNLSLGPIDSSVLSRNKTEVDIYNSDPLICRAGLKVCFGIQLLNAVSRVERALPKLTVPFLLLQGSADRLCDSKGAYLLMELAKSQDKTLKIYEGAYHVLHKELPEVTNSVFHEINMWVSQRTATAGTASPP
Description: In vitro MGL activity assay: [glycerol-1,3-3H]-oleyl glycerol cleavage by MGL from HeLa cells. The following applies: 300 nM [Glycerol-1,3-3H]-oleyl glycerol, one hour. It is filed as biochemical. The source says:
MGL is the predominant hydrolase in HeLa cells/cell homogenates.
Broadly, the IC50 is the concentration that gives 50% inhibition. Low values mean greater potency, high ones weaker potency. For `C[C@H]1c2nn(C)c(-c3cc(F)c(F)c(F)c3)c2CCN1C(=O)c1nn(C)c2cnccc12` [Example 431, [(7S)-2,7-Dimethyl-3-(3,4,5-trifluorophenyl)-5,7-dihydro-4H-pyrazolo[3,4-c]pyridin-6-yl]-(1-methylpyrazolo[3,4-c]pyridin-3-yl)methanone.TFA salt], the 50% inhibitory concentration (IC50) was found to be 95.3 nM.
For the compound `COc1cccc2c(C(=O)N3CCc4c(nn(C)c4-c4cc(F)c(F)c(F)c4)[C@@H]3C)ccnc12` [Example 550, [(7S)-2,7-Dimethyl-3-(3,4,5-trifluorophenyl)-5,7-dihydro-4H-pyrazolo[3,4-c]pyridin-6-yl]-(8-methoxy-4-quinolyl)methanone], the IC50 worked out at 48.3 nM.
Same read-out and setting: with `COc1nccc(C(=O)N2CCc3c(nn(C)c3-c3ccc(F)c(C)c3)[C@@H]2C)c1C` [Example 598, [(7S)-3-(4-Fluoro-3-methyl-phenyl)-2,7-dimethyl-5,7-dihydro-4H-pyrazolo[3,4-c]pyridin-6-yl]-(2-methoxy-3-methyl-4-pyridyl)methanone] the figure was 29.9 nM; with `C[C@H]1c2nn(C)c(-c3cc(F)c(F)c(F)c3)c2CCN1C(=O)c1c(C(F)F)nc2ccccn12` [Example 412, [2-(Difluoromethyl)imidazo[1,2-a]pyridin-3-yl]-[(7S)-2,7-dimethyl-3-(3,4,5-trifluorophenyl)-5,7-dihydro-4H-pyrazolo[3,4-c]pyridin-6-yl]methanone], 12.9 nM.
The same measure, in the same setting: with `C[C@H]1c2nn(C)c(-c3cc(F)c(F)c(F)c3)c2CCN1C(=O)c1n[nH]c2ncccc12` [Example 426, [(7S)-2,7-Dimethyl-3-(3,4,5-trifluorophenyl)-5,7-dihydro-4H-pyrazolo[3,4-c]pyridin-6-yl]-(1H-pyrazolo[3,4-b]pyridin-3-yl)methanone] the figure was 14.5 nM; with `Cc1nc(C(=O)N2CCc3c(nn(C)c3-c3cc(F)c(F)c(F)c3)[C@@H]2C)c2cnccn12` [Example 462, [(7S)-2,7-Dimethyl-3-(3,4,5-trifluorophenyl)-5,7-dihydro-4H-pyrazolo[3,4-c]pyridin-6-yl]-(3-methylimidazo[1,5-a]pyrazin-1-yl) methanone], 35.4 nM; with `COc1ncc(-c2c3c(nn2C)[C@H](C)N(C(=O)c2ccc4ncccc4c2)CC3)cc1C` [Example 529, [(7S)-3-(6-Methoxy-5-methyl-3-pyridyl)-2,7-dimethyl-5,7-dihydro-4H-pyrazolo[3,4-c]pyridin-6-yl]-(6-quinolyl)methanone], 320 nM.
Take `Cc1cnn2nc(C3CC3)c(C(=O)N3CCc4c(nn(C)c4-c4cc(F)c(F)c(F)c4)[C@@H]3C)c2c1` [Example 445, (2-Cyclopropyl-5-methyl-pyrazolo[1,5-b]pyridazin-3-yl)-[(7S)-2,7-dimethyl-3-(3,4,5-trifluorophenyl)-5,7-dihydro-4H-pyrazolo[3,4-c]pyridin-6-yl]methanone]: the IC50 is 525 nM.
The compound `C[C@H]1c2nn(C)c(-c3cc(F)cc(C(F)F)c3)c2CCN1C(=O)c1ccc2c(c1)OCCC2` [Example 610, Chroman-7-yl-[(7S)-3-[3-(difluoromethyl)-5-fluoro-phenyl]-2,7-dimethyl-5,7-dihydro-4H-pyrazolo[3,4-c]pyridin-6-yl]methanone] had an IC50 of 29.4 nM.
Same read-out and setting: with `C[C@H]1c2nn(C)c(-c3cc(F)c(F)c(F)c3)c2CCN1C(=O)c1cnc2[nH]ccc2c1` [Example 368, [(7S)-2,7-Dimethyl-3-(3,4,5-trifluorophenyl)-5,7-dihydro-4H-pyrazolo[3,4-c]pyridin-6-yl]-(1H-pyrrolo[2,3-b]pyridin-5-yl)methanone] the figure was 9.36 nM; with `C[C@H]1c2nn(C)c(-c3cc(F)c(F)c(F)c3)c2CCN1C(=O)c1nccc2cc[nH]c12` [Example 376, [(7S)-2,7-Dimethyl-3-(3,4,5-trifluorophenyl)-5,7-dihydro-4H-pyrazolo[3,4-c]pyridin-6-yl]-(1H-pyrrolo[2,3-c]pyridin-7-yl)methanone], 599 nM; with `C[C@H]1c2nn(C)c(-c3cc(F)c(F)c(F)c3)c2CCN1C(=O)c1cccc2c1CCCO2` [Example 581, Chroman-5-yl-[(7S)-2,7-dimethyl-3-(3,4,5-trifluorophenyl)-5,7-dihydro-4H-pyrazolo[3,4-c]pyridin-6-yl]methanone], 15.6 nM.
Same read-out and setting: with `C[C@H]1c2nn(C)c(-c3cc(F)c(F)c(F)c3)c2CCN1C(=O)c1cnc2cccnn12` [Example 454, [(7S)-2,7-Dimethyl-3-(3,4,5-trifluorophenyl)-5,7-dihydro-4H-pyrazolo[3,4-c]pyridin-6-yl]-imidazo[1,2-b]pyridazin-3-yl-methanone] the figure was 24.9 nM.
For the compound `COc1nccc(C(=O)N2CCc3c(nn(C)c3-c3ccc(F)c(OC(F)F)c3)[C@@H]2C)c1C` [Example 595, [(7S)-3-[3-(Difluoromethoxy)-4-fluoro-phenyl]-2,7-dimethyl-5,7-dihydro-4H-pyrazolo[3,4-c]pyridin-6-yl]-(2-methoxy-3-methyl-4-pyridyl)methanone], the IC50 was found to be 106 nM.
Same read-out and setting: the result for `C[C@H]1c2nn(C)c(-c3cc(F)c(F)c(F)c3)c2CCN1C(=O)c1cccc2c1ncn2C` [Example 366, [(7S)-2,7-Dimethyl-3-(3,4,5-trifluorophenyl)-5,7-dihydro-4H-pyrazolo[3,4-c]pyridin-6-yl]-(1-methylbenzimidazol-4-yl)methanone] reads 51.9 nM.
Same read-out and setting: the result for `C[C@H]1c2nn(C)c(-c3cccc(OC(F)F)c3)c2CCN1C(=O)c1ccc2ncccc2c1` [Example 499, [(7S)-3-[3-(Difluoromethoxy)phenyl]-2,7-dimethyl-5,7-dihydro-4H-pyrazolo[3,4-c]pyridin-6-yl]-(6-quinolyl)methanone] reads 44.4 nM.

Staying with this experiment, now noted: 300 nM [Glycerol-1,3-3H]-oleyl glycerol, one hour incubation.
Consider `COc1ccc(C(=O)N2CCc3c(nn(C)c3-c3cc(C)cc(F)c3)[C@@H]2C)cc1` [Example 258, [(7S)-3-(3-Fluoro-5-methyl-phenyl)-2,7-dimethyl-5,7-dihydro-4H-pyrazolo[3,4-c]pyridin-6-yl]-(4-methoxyphenyl)methanone], for which half-maximal inhibition (IC50) was put at 68.5 nM.
Compound `Cc1cc(C(=O)N2CCc3c(nn(C)c3-c3cc(F)c(F)c(F)c3)[C@@H]2C)c2ccccc2n1` [Example 239, (S)-(2,7-Dimethyl-3-(3,4,5-trifluorophenyl)-2,4,5,7-tetrahydro-6H-pyrazolo[3,4-c]pyridin-6-yl)(2-methylquinolin-4-yl)methanone] displayed an IC50 of 3.74 nM.
Compound `COc1c(Cl)cccc1C(=O)N1CCc2c(nn(C)c2-c2ccccc2)C1` [Example 14, (3-Chloro-2-methoxy-phenyl)-(2-methyl-3-phenyl-5,7-dihydro-4H-pyrazolo[3,4-c]pyridin-6-yl)methanone] returned an IC50 of 2590 nM.
`Cn1nc2c(c1-c1ccccc1)CCN(C(=O)c1cccc3nccn13)C2` [Example 80, Imidazo[1,2-a]pyridin-5-yl(2-methyl-3-phenyl-2,4,5,7-tetrahydro-6H-pyrazolo[3,4-c]pyridin-6-yl)methanone] showed an IC50 of 2330 nM.
In the case of `Cc1ccc(-n2nccn2)c(C(=O)N2CCc3c(nn(C)c3-c3cc(F)c(F)c(F)c3)[C@@H]2C)n1` [Example 319, [(7S)-2,7-Dimethyl-3-(3,4,5-trifluorophenyl)-5,7-dihydro-4H-pyrazolo[3,4-c]pyridin-6-yl]-[6-methyl-3-(triazol-2-yl)-2-pyridyl]methanone], the IC50 amounted to 255 nM.
On the same count and under the same terms, the result for `Cc1nc2cccc(Cl)n2c1C(=O)N1CCc2c(nn(C)c2-c2ccccc2)C1` [Example 82, (5-Chloro-2-methylimidazo[1,2-a]pyridin-3-yl)(2-methyl-3-phenyl-2,4,5,7-tetrahydro-6H-pyrazolo[3,4-c]pyridin-6-yl)methanone] reads 4810 nM.
Same read-out and setting: with `COc1ccc(C(=O)N2CCc3c(nn(C)c3-c3cc(F)c(F)c(F)c3)[C@@H]2C)cc1-n1cnnc1` [Example 297, [(7S)-2,7-Dimethyl-3-(3,4,5-trifluorophenyl)-5,7-dihydro-4H-pyrazolo[3,4-c]pyridin-6-yl]-[4-methoxy-3-(1,2,4-triazol-4-yl)phenyl]methanone] the figure was 923 nM; with `CC1c2nn(C)c(-c3ccccc3)c2CCN1C(=O)c1ccc2ncccc2c1` (racemic) [Example 110, (2,7-Dimethyl-3-phenyl-2,4,5,7-tetrahydro-6H-pyrazolo[3,4-c]pyridin-6-yl)(quinolin-6-yl)methanone], 19.9 nM; with `C[C@H]1c2nn(C)c(-c3cc(F)cc(F)c3)c2CCN1C(=O)c1ccc2ncc(OCCF)cc2c1` [Example 166, (S)-(3-(3,5-Difluorophenyl)-2,7-dimethyl-2,4,5,7-tetrahydro-6H-pyrazolo[3,4-c]pyridin-6-yl)(3-(2-fluoroethoxy)quinolin-6-yl)methanone], 11.3 nM.
Same read-out and setting: the result for `C[C@H]1c2nn(C)c(-c3cccc(Cl)c3)c2CCN1C(=O)c1ccc2[nH]c(=O)oc2c1` [Example 124, (S)-6-(3-(3-Chlorophenyl)-2,7-dimethyl-4,5,6,7-tetrahydro-2H-pyrazolo[3,4-c]pyridine-6-carbonyl)benzo[d]oxazol-2(3H)-one] reads 19.7 nM.
For the compound `Cn1nc2c(c1-c1ccccc1)CCN(C(=O)c1cn(C)c3ccccc13)C2` [Example 52, (1-Methyl-1H-indol-3-yl)(2-methyl-3-phenyl-2,4,5,7-tetrahydro-6H-pyrazolo[3,4-c]pyridin-6-yl)methanone], the midpoint of inhibition, the IC50, lay at 138 nM.
The same measure, in the same setting: the result for `CC1c2nn(C)c(-c3cccc(Cl)c3)c2CCN1C(=O)c1cnc2ccoc2c1` (racemic) [Example 126, (3-(3-Chlorophenyl)-2,7-dimethyl-2,4,5,7-tetrahydro-6H-pyrazolo[3,4-c]pyridin-6-yl)(furo[3,2-b]pyridin-6-yl)methanone] reads 130 nM.
